Assays:
Assay type in all cases: in vivo
Conditions in all cases: applied in granular form; pre-plant and final test results collectively
[1] = tested on: microbivorous (beneficial) nematodes; test: Nematicidal activity of granules in infested silt loam pots: microbivorous nematodes
Description: (§1) The soil used in this study was naturally infested with three species of nematodes, one of which was deleterious, and the other two beneficial, and observations were made of both the survival of the nematodes and the growth of the soybean plants.
(§2) The hydrogen cyanamide granules were prepared by impregnating PROFILE granules (15 mesh) with DORMEX (50% hydrogen cyanamide in aqueous solution with phosphate buffer), and drying the moist granules on trays at 20° C. for 24 hours to achieve granules containing hydrogen cyanamide at a concentration of 25% by weight. Planting pots measuring 10 cm in diameter were used. Each pot contained 1 kg of silt loam from a cotton field, pH 6.2, CEC<10 meq/100 g soil, organic matter<1.0%, the soil being severely infested with the deleterious reniform nematode (Rotylenchulus reniformis). […]
(§3) After the polyethylene bags were removed, each pot was planted with Hutcheson soybean seeds at 5 seeds per pot, and the seeds were allowed to germinate and the plants to grow for 39 days. […] The number of surviving nematodes in each pot were determined, as were the number of nematodes in the root systems, the weights of both the fresh shoots and the roots, and the shoot height. […] Fischer's Least Significant Difference at p 0.05 was calculated when appropriate. […]

Dorylaimida nematodes = test: Nematicidal activity of granules in infested silt loam pots: Dorylaimida nematodes
Description: as §1, §2, §3

[2] = tested on: reniform nematode (Rotylenchulus reniformis); test: Nematicidal activity of granules in infested silt loam pots: reniform nematodes
Description: as §1, §2, §3

N#CN [hydrogen cyanamide]
populations of the microbivorous nematodes [1]: not significantly affected
populations of the Dorylaimida nematodes (Dorylaimida nematodes): affected
nematicidal activity against the reniform nematodes [2]: without loss of nematicidal activity

Source: patent publication US20100004131A1, “SOLID FORMULATIONS OF HYDROGEN CYANAMIDE FOR AGRICULTURAL APPLICATIONS” (Metbro Distributing, L.P., priority 2007, published 2010)
